Patent US9555029B2 (HIKMA PHARMACEUTICALS, priority 2013, dated 2017)
Read-outs that look alike come from different tables or passages of the source.

What was measured:
[1] = Colchicine pharmacokinetics coadministered with voriconazole
[2] = Protocol: Safety was evaluated through assessment of adverse events, standard laboratory evaluations, physical examination (including vital signs) and ECG. Safety was determined by descriptive statistics.
The inhibitor dosage form was an oral 200 mg tablet of Diflucan® (fluconazole, from Pfizer).
The fluconazole trial differed from the Example 2 protocol as follows.

[3] = for AUCT/∞ / Kel / T1/2el: mean
[4] = for AUCT/∞ / Kel / T1/2el: mean; remark: listed apart in the source
[5] = cited from earlier work; for Kel / T1/2el: arithmetic mean; for AUCT / Cmax: geometric mean
[6] = cited from earlier work; for AUCT / Cmax: geometric mean
[7] = Treatment-1: colchicine 0.6 mg alone (day 1, fasted); diltiazem ER study; arithmetic mean; cited from earlier work
[8] = Treatment-1 (day 1): colchicine 0.6 mg alone, fasted, voriconazole study, mean
[9] = Treatment-2 (day 9): colchicine 0.6 mg + voriconazole 200 mg after twice daily days 4-8, fasted, mean
[10] = of 12 subjects, colchicine + fluconazole
[11] = of 12 subjects, fluconazole study
[12] = Treatment-1 (day 1): colchicine 0.6 mg alone, fasted, cimetidine study
[13] = Treatment-2 (day 9): colchicine 0.6 mg + cimetidine 800 mg after double dose day 4, once daily days 5-8, fasted
[14] = Treatment-1 (day 1): colchicine 0.6 mg alone, fasted, propafenone study
[15] = Treatment-2 (day 9): colchicine 0.6 mg + propafenone 225 mg after twice daily days 4-8, fasted
[16] = coadministration with propafenone vs colchicine alone
[17] = Treatment-1: colchicine 0.6 mg alone (day 1, fasted), clarithromycin study
[18] = Treatment-2: colchicine 0.6 mg + clarithromycin 250 mg twice daily (days 22-29)
[19] = Treatment-1: colchicine 0.6 mg alone (day 1, fasted), ritonavir study, arithmetic mean
[20] = Treatment-1: colchicine 0.6 mg alone (day 1, fasted), ritonavir study
[21] = Treatment-2: colchicine 0.6 mg (day 19) + ritonavir 100 mg twice daily (days 15-19)

Q: With `COc1cc2c(c(OC)c1OC)-c1ccc(OC)c(=O)cc1[C@@H](NC(C)=O)CC2` [Colchicine, (S)N-(5,6,7,9-tetrahydro-1,2,3,10-tetramethoxy-9-oxobenzo[alpha]heptalen-7-yl)acetamide] as the molecule, how does the “AUCT/∞” value [1, 8] read?
A: 87.75%

Q: What about the Kel [1, 8] of the same molecule?
A: 0.0240 h⁻¹

Q: What about the T1/2el [1, 8] of the same molecule?
A: 29.63 h

Q: What about the “AUCT/∞” value [1, 9] of the same molecule?
A: 86.14%

Q: What about the Kel [1, 9] of the same molecule?
A: 0.0227 h⁻¹

Q: And the T1/2el [1, 9]?
A: 31.30 h

Q: And the “Decrease of colchicine Cmax” value ([1]; coadministration with voriconazole vs colchicine alone)?
A: about 20%

Q: And the CL/F ([1]; male, human, in vivo, 0.6 mg)?
A: 550 mL/min

Q: And the Tmax ([1]; male, human, in vivo, 0.6 mg)?
A: 1.38 h

Q: And the Vd/F ([1]; male, human, in vivo, 0.6 mg)?
A: 1350 L

Q: And the AUC(0-t) ([1]; male, human, in vivo, 0.6 mg, AUCT GEOMETRIC LSMEANS, Treatment-1: colchicine 0.6 mg alone, voriconazole study)?
A: 17.9 ng·h/mL

Q: What about the AUC(0-t) ([1]; male, human, in vivo, 0.6 mg, AUCT, Treatment-1 (day 1): colchicine 0.6 mg alone, fasted, voriconazole study, mean) of the same molecule?
A: 19.6 ng·h/mL

Q: And the AUC(0-inf) ([1]; male, human, in vivo, 0.6 mg, AUC∞ GEOMETRIC LSMEANS, Treatment-1: colchicine 0.6 mg alone, voriconazole study)?
A: 20.5 ng·h/mL

Q: And the AUC(0-inf) ([1]; male, human, in vivo, 0.6 mg, AUC∞, Treatment-1 (day 1): colchicine 0.6 mg alone, fasted, voriconazole study, mean)?
A: 22.4 ng·h/mL

Q: What about the Cmax ([1]; male, human, in vivo, 0.6 mg, Cmax GEOMETRIC LSMEANS, Treatment-1: colchicine 0.6 mg alone, voriconazole study) of the same molecule?
A: 2.3 ng/mL

Q: And the Cmax ([1]; male, human, in vivo, 0.6 mg, Cmax, Treatment-1 (day 1): colchicine 0.6 mg alone, fasted, voriconazole study, mean)?
A: 2.66 ng/mL

Q: And the AUC(0-t) ([1]; male, human, in vivo, AUCT GEOMETRIC LSMEANS, Treatment-2: colchicine 0.6 mg + voriconazole)?
A: 19.5 ng·h/mL

Q: And the AUC(0-t) ([1]; male, human, in vivo, AUCT, Treatment-2 (day 9): colchicine 0.6 mg + voriconazole 200 mg after twice daily days 4-8, fasted, mean)?
A: 20.7 ng·h/mL

Q: What about the AUC(0-inf) ([1]; male, human, in vivo, AUC∞ GEOMETRIC LSMEANS, Treatment-2: colchicine 0.6 mg + voriconazole) of the same molecule?
A: 22.7 ng·h/mL

Q: And the AUC(0-inf) ([1]; male, human, in vivo, AUC∞, Treatment-2 (day 9): colchicine 0.6 mg + voriconazole 200 mg after twice daily days 4-8, fasted, mean)?
A: 24.1 ng·h/mL

Q: What about the Cmax ([1]; male, human, in vivo, Cmax GEOMETRIC LSMEANS, Treatment-2: colchicine 0.6 mg + voriconazole) of the same molecule?
A: 1.83 ng/mL

Q: What about the Cmax ([1]; male, human, in vivo, Cmax, Treatment-2 (day 9): colchicine 0.6 mg + voriconazole 200 mg after twice daily days 4-8, fasted, mean) of the same molecule?
A: 2.06 ng/mL

Q: And the “Total number of adverse events after Treatment-2” value ([2]; colchicine + fluconazole)?
A: 3

Q: And the “Number of adverse events requiring medication after Treatment-1” value ([2]; fluconazole study)?
A: None

Q: And the “Number of serious adverse events or deaths” value ([2]; fluconazole study)?
A: None

Q: What about the “Total number of adverse events after Treatment-1” value ([2]; fluconazole study) of the same molecule?
A: 7

Q: What about the “Number of subjects experiencing adverse events after Treatment-2” value [2, 10] of the same molecule?
A: 3

Q: What about the “Percent of subjects experiencing adverse events after Treatment-2” value [2, 10] of the same molecule?
A: 25.0%

Q: And the “Number of subjects experiencing adverse events after Treatment-1” value [2, 11]?
A: 3

Q: What about the “Percent of subjects experiencing adverse events after Treatment-1” value [2, 11] of the same molecule?
A: 25.0%

Q: And the “AUCT/∞” value [3, 12]?
A: 85.29%

Q: And the Kel [3, 12]?
A: 0.0201 h⁻¹

Q: What about the T1/2el [3, 12] of the same molecule?
A: 35.46 h

Q: And the “AUCT/∞” value [3, 13]?
A: 86.53%

Q: What about the Kel [3, 13] of the same molecule?
A: 0.0222 h⁻¹

Q: What about the T1/2el [3, 13] of the same molecule?
A: 31.54 h

Q: What about the “Decrease of colchicine Cmax” value ([3]; coadministration with cimetidine vs colchicine alone) of the same molecule?
A: 33%

Q: And the “Decrease of colchicine AUC” value ([3]; coadministration with cimetidine vs colchicine alone, not significant)?
A: 15%

Q: And the “AUCT/∞” value [4, 14]?
A: 88.21%

Q: What about the Kel [4, 14] of the same molecule?
A: 0.0241 h⁻¹

Q: And the T1/2el [4, 14]?
A: 29.74 h

Q: What about the “AUCT/∞” value [4, 15] of the same molecule?
A: 89.16%

Q: And the Kel [4, 15]?
A: 0.0250 h⁻¹

Q: And the T1/2el [4, 15]?
A: 28.25 h

Q: And the “Tmax (median hours)” value ([4]; Treatment-2 (day 9): colchicine 0.6 mg + propafenone 225 mg after twice daily days 4-8, fasted, median)?
A: 1.00 h

Q: What about the “Increase of colchicine AUC” value [4, 16] of the same molecule?
A: 1%

Q: And the “Increase of colchicine Cmax” value [4, 16]?
A: 7%

Q: And the Kel [5, 17]?
A: 0.1324 h⁻¹

Q: And the T1/2el [5, 17]?
A: 8.89 h

Q: What about the CLTOT/F [5, 17] of the same molecule?
A: 46.8 L/h

Q: And the AUCT [5, 17]?
A: 12,370 pg · h/mL

Q: And the Cmax [5, 17]?
A: 2,840 pg/mL

Q: What about the Kel [5, 18] of the same molecule?
A: 0.0296 h⁻¹

Q: And the T1/2el [5, 18]?
A: 30.31 h

Q: What about the CLTOT/F [5, 18] of the same molecule?
A: 12.0 L/h

Q: What about the AUCT [5, 18] of the same molecule?
A: 41,950 pg · h/mL

Q: And the Cmax [5, 18]?
A: 8,440 pg/mL

Q: What about the Kel [6, 19] of the same molecule?
A: 0.1666 h⁻¹

Q: And the T1/2el [6, 19]?
A: 5.15 h

Q: And the CLTOT/F [6, 20]?
A: 67.93 L/h

Q: And the AUCT [6, 20]?
A: 8,410 pg · h/mL

Q: And the Cmax [6, 20]?
A: 1,870 pg/mL

Q: What about the T1/2el ([6]; Treatment-2: colchicine 0.6 mg (day 19) + ritonavir 100 mg twice daily (days 15-19), arithmetic mean) of the same molecule?
A: 17.41 h

Q: And the CLTOT/F [6, 21]?
A: 18.59 L/h

Q: What about the AUCT [6, 21] of the same molecule?
A: 29,050 pg · h/mL

Q: And the Cmax [6, 21]?
A: 4,990 pg/mL

Q: What about the Kel [7] of the same molecule?
A: 0.1589 h⁻¹

Q: What about the T1/2el [7] of the same molecule?
A: 5.51 h
